Assay results taken from patent US20210299134A1, “TREATMENT OF B CELL MALIGNANCIES” (MEI Pharma, Inc., priority 2018, published 2021).

Assays:
murine B-cell tumors = assay: Tumor exposure and retention (FIGS. 3 and 4); assay type: in vivo
[1] = test system: patients with relapsed B-cell malignancies (FL, CLL/SLL); assay: Phase 1b study of Compound A35 as single agent: disease response rate; assay type: in vivo, human
Experimental: (§1) An intermittent dosing schedule on days 1-7 of a 28-day cycle was then evaluated after 2 cycles of daily dosing, or ≥3 cycles of daily dosing to reduce the risk of immune-related adverse events. For this analysis the intermittent schedule (IS) group is defined as patients who received Compound A35 alone or with rituximab daily for 2 cycles then switched to an intermittent schedule of 1 week per cycle, and the continuous schedule (CS) group is defined as patients who never switched to intermittent dosing or switched to intermittent dosing in cycle 4 or later cycles. Toxicity on CS is managed by a switch to IS.
In an ongoing Phase 1b study, Compound A35 was administered as a single agent in patients with relapsed B-cell malignancies. Patients have been enrolled in 3 cohorts: • Group A: 31 patients enrolled in a dose escalation phase of the study, with Compound A35 administered as a single agent at a dose of 60, 120, and 180 mg/day. In Group A, all patients began receiving Compound A35 on a CS. Approximately 1.5 years after the start of the study, 17 ongoing patients were switched to the IS to prevent delayed immune-mediated toxicities after various duration of exposure on the CS. […]
31 patients received Compound A35 monotherapy at doses ≥60 mg daily on the CS, of whom 2 discontinued Compound A35 in the first 2 cycles of therapy and 29 received >2 cycles.
A very high rate of disease response was reported in 30 patients evaluable for response in the dose escalation cohort, both in FL and CLL/SLL, with no difference in response rate across the 3 doses evaluated (Table 2).

[2] = test system: patients with relapsed B-cell malignancies; assay: Phase 1b study: patient dispositions on intermittent or continuous schedule; assay type: in vivo, human; conditions: Compound A35 alone arm
Experimental: as §1
In an ongoing Phase 1b study, Compound A35 was administered as a single agent in patients with relapsed B-cell malignancies. Patients have been enrolled in 3 cohorts: • Group A: 31 patients enrolled in a dose escalation phase of the study, with Compound A35 administered as a single agent at a dose of 60, 120, and 180 mg/day. In Group A, all patients began receiving Compound A35 on a CS. Approximately 1.5 years after the start of the study, 17 ongoing patients were switched to the IS to prevent delayed immune-mediated toxicities after various duration of exposure on the CS.
• Group B: 21 patients enrolled in an ongoing expansion cohort of up to 30 patients administered Compound A35 as a single agent at 60 mg/day on the CS for 2 cycles then switching to the IS in Cycle 3 (N=17) or later cycles (N=4).

[3] = All evaluable patients, 60 mg, n = 12
[4] = All evaluable patients, 120 mg, n = 12
[5] = All evaluable patients, 180 mg, n = 6
[6] = All evaluable patients, Total (all doses), n = 30
[7] = CLL/SLL, Total (all doses), n = 9
[8] = FL evaluable, Total (all doses), n = 21

For `CN1CCC(c2ccccc2CC(C)(C)Nc2nc(N3CCOCC3)nc(-n3c(C(F)F)nc4ccccc43)n2)CC1` [Compound A35], the “retention in murine B-cell tumors compared to idelalisib” value (murine B-cell tumors; FIG. 4) was “preferential retention”, the tumor exposure (murine B-cell tumors; over a 4-hour and 24-hour period (FIG. 3)) was “preferential tumor exposure” and the “Morphologic and/or metabolic complete response” value [1, 3] was “(42%)”. For the same compound, the “Morphologic and/or metabolic complete response, number of patients” value [1, 3] was 5, the Overall response rate [1, 3] was “(92%)” and the “Overall response rate, number of patients” value [1, 3] was 11. The “Morphologic and/or metabolic complete response” value [1, 4] was “(33%)”, the “Morphologic and/or metabolic complete response, number of patients” value [1, 4] was 4 and the Overall response rate [1, 4] was “(92%)”. For the same compound, the “Overall response rate, number of patients” value [1, 4] was 11, the “Morphologic and/or metabolic complete response, number of patients” value [1, 5] was 0 and the Overall response rate [1, 5] was “(83%)”. The “Overall response rate, number of patients” value [1, 5] was 5, the “Morphologic and/or metabolic complete response” value [1, 6] was “(30%)” and the “Morphologic and/or metabolic complete response, number of patients” value [1, 6] was 9. For the same compound, the Overall response rate [1, 6] was “(90%)”, the “Overall response rate, number of patients” value [1, 6] was 27 and the Morphologic complete response ([1]; CLL/SLL, 60 mg, n = 6) was “(50%)”. The “Morphologic complete response, number of patients” value ([1]; CLL/SLL, 60 mg, n = 6) was 3, the Overall response rate ([1]; CLL/SLL, 60 mg, n = 6) was “(100%)” and the “Overall response rate, number of patients” value ([1]; CLL/SLL, 60 mg, n = 6) was 6. The “Morphologic complete response, number of patients” value ([1]; CLL/SLL, 120 mg, n = 2) was 0, the Overall response rate ([1]; CLL/SLL, 120 mg, n = 2) was “(100%)” and the “Overall response rate, number of patients” value ([1]; CLL/SLL, 120 mg, n = 2) was 2. For the same compound, the “Morphologic complete response, number of patients” value ([1]; CLL/SLL, 180 mg, n = 1) was 0, the Overall response rate ([1]; CLL/SLL, 180 mg, n = 1) was “(100%)” and the “Overall response rate, number of patients” value ([1]; CLL/SLL, 180 mg, n = 1) was 1. For the same compound, the Morphologic complete response [1, 7] was “(33%)”, the “Morphologic complete response, number of patients” value [1, 7] was 3 and the Overall response rate [1, 7] was “(100%)”. For the same compound, the “Overall response rate, number of patients” value [1, 7] was 9, the “Morphologic and/or metabolic complete response” value ([1]; FL evaluable, 60 mg, n = 6) was “(33%)” and the “Morphologic and/or metabolic complete response, number of patients” value ([1]; FL evaluable, 60 mg, n = 6) was 2. For the same compound, the Overall response rate ([1]; FL evaluable, 60 mg, n = 6) was “(83%)”, the “Overall response rate, number of patients” value ([1]; FL evaluable, 60 mg, n = 6) was 5 and the “Morphologic and/or metabolic complete response” value ([1]; FL evaluable, 120 mg, n = 10) was “(40%)”. For the same compound, the “Morphologic and/or metabolic complete response, number of patients” value ([1]; FL evaluable, 120 mg, n = 10) was 4, the Overall response rate ([1]; FL evaluable, 120 mg, n = 10) was “(90%)” and the “Overall response rate, number of patients” value ([1]; FL evaluable, 120 mg, n = 10) was 9. For the same compound, the “Morphologic and/or metabolic complete response, number of patients” value ([1]; FL evaluable, 180 mg, n = 5) was 0, the Overall response rate ([1]; FL evaluable, 180 mg, n = 5) was “(80%)” and the “Overall response rate, number of patients” value ([1]; FL evaluable, 180 mg, n = 5) was 4. The “Morphologic and/or metabolic complete response” value [1, 8] was “(21%)”, the “Morphologic and/or metabolic complete response, number of patients” value [1, 8] was 6 and the Overall response rate [1, 8] was “(86%)”. The “Overall response rate, number of patients” value [1, 8] was 18, the “Discontinued therapy: Adverse event” value ([2]; CS Group (N = 25)) was “(16%)” and the “Discontinued therapy: Adverse event, number of patients” value ([2]; CS Group (N = 25)) was 4. The “Discontinued therapy: Progressive disease” value ([2]; CS Group (N = 25)) was “(20%)”, the “Discontinued therapy: Progressive disease, number of patients” value ([2]; CS Group (N = 25)) was 5 and the “Discontinued therapy: Adverse event, number of patients” value ([2]; IS Group (N = 15)) was 0. The “Discontinued therapy: Progressive disease” value ([2]; IS Group (N = 15)) was “(20%)” and the “Discontinued therapy: Progressive disease, number of patients” value ([2]; IS Group (N = 15)) was 3.
